Read-outs that look alike come from different tables or passages of the source.
Key:
HIV = test: microbe, parasite or virus in culture; format: cell-based
[1] = Repeated-dose toxicity study in mice; conditions: 25 and 50 mg/kg, daily i.p. for 28 days
in vitro = conditions: human
1617-1 = test: HIV-1 resistant strain PBMC assay (p24 ELISA), 1617-1 (AZT resistant); format: cell-based; conditions: Human immunodeficiency virus 1, PBMC, read-out: IC50 against 1617-1
Bal = test: HIV-1 clinical strain PBMC assay (p24 ELISA), Bal; format: cell-based; conditions: Human immunodeficiency virus 1, BAL, read-out: IC50 against Bal
Lav.04 = test: HIV-1 clinical strain PBMC assay (p24 ELISA), Lav.04; format: cell-based; conditions: Human immunodeficiency virus 1, PBMC, read-out: IC50 against Lav.04
[2] = Cytotoxicity against PBMC; format: cell-based; conditions: human
N119 = test: HIV-1 resistant strain PBMC assay (p24 ELISA), N119 (nevaripine resistant); format: cell-based; conditions: Human immunodeficiency virus 1, PBMC, read-out: IC50 against N119
SF162 = test: HIV-1 clinical strain PBMC assay (p24 ELISA), SF162; format: cell-based; conditions: Human immunodeficiency virus 1, PBMC, read-out: IC50 against SF162
89.6 = test: HIV-1 clinical strain PBMC assay (p24 ELISA), 89.6; format: cell-based; conditions: Human immunodeficiency virus 1, PBMC, read-out: IC50 against 89.6
[3] = test system: broad HIV clinical strains; conditions: background; read-out: EC50 against broad HIV clinical strains; cited from earlier work
[4] = test system: VSV (vesicular stomatitis virus); test: microbe, parasite or virus in culture; format: cell-based; conditions: for EC50: A549, read-out: EC50 against VSV
H5N1 virus = test: microbe, parasite or virus in culture; format: cell-based, H5N1 influenza virus; conditions: for EC50: H5N1, A549, read-out: EC50 against H5N1 virus
EBOV (Ebola virus) = test: microbe, parasite or virus in culture; format: cell-based; conditions: Zaire ebolavirus; for EC50: A549, read-out: EC50 against EBOV
A549 cells [5] = test: cells; conditions: Homo sapiens, A549, read-out: % Inhibition against A549 cells
SARS-CoV-2 = test: microbe, parasite or virus in culture; format: cell-based; conditions: Severe acute respiratory syndrome coronavirus 2, HepG2, read-out: EC50 against SARS-CoV-2
A549 cells [6] = test system: A549 cells
[7] = Human immunodeficiency virus 1, A549

Row | Molecule | anti-HIV activity in terms of SI values (HIV) | EC50 (HIV; [7]) [nM] | CC50 (in vitro; CC50 (nM)) [nM] | IC50 (1617-1) [nM] | IC50 (Bal) [nM] | IC50 (Lav.04) [nM] | CC50 [2] [nM] | IC50 (N119) [nM] | IC50 (SF162) [nM] | IC50 (89.6) [nM] | further results
1 | COc1cc2c(OC3OC[C@@H](OC(C)=O)[C@H](OC(C)=O)[C@H]3OC(C)=O)c3c(c(-c4ccc5c(c4)OCO5)c2cc1OC)C(=O)OC3 (stereo partly drawn) [Compound 25a, Peracetylated 7β-D-xylosyloxydiphyllin] | much more improved anti-HIV activity | 7 | 3080 | – | – | – | – | – | – | – | excised organs at the end of the experiment [1]: appeared as normal; toxic symptoms (weight loss, skin damage, food and water intake impairment and postual abnormality) and mortality [1]: no toxic symptoms
2 | COc1cc2c(B3OC(C)(C)C(C)(C)O3)c3c(c(-c4ccc5c(c4)OCO5)c2cc1OC)C(=O)OC3 [Compound 19a] | much more improved anti-HIV activity | 77.2 | 10500 | 152 | 188 | 138 | > 100000 | 185 | 154 | 143 | –
3 | C#Cc1c2c(c(-c3ccc4c(c3)OCO4)c3cc(OC)c(OC)cc13)C(=O)OC2 [Compound 21] | – | 17.8 | 207 | 39.3 | 26.5 | 30.1 | 25600 | 42.1 | 23.9 | 28.7 | –
4 | Cc1cn([C@H]2C[C@H](N=[N+]=[N-])[C@@H](CO)O2)c(=O)[nH]c1=O [AZT, zidovudine, reference compound] | – | 2.6 | – | – | – | – | – | – | – | – | EC50 [3]: 77 to 95 nM; inhibition at 0.02 µg/mL ([4]; A549, 20 ng/mL, read-out: % Inhibition against VSV): 99.4%; EC50 [4]: 7.06 nM; % Inhibition against H5N1 virus (H5N1 virus; 20 ng/mL): 92.7%; inhibition at 0.02 µg/mL (H5N1 virus; Influenza A virus, H5N1, A549, 20 ng/mL, read-out: % Inhibition against H5N1 virus): 96.5%; EC50 (H5N1 virus; Influenza A virus): 3.48 nM; EC50 (EBOV (Ebola virus)): 3.8 nM; inhibition at 0.02 µg/mL (EBOV (Ebola virus); A549, 20 ng/mL, read-out: % Inhibition against EBOV): 93.6%; inhibition at 0.02 µg/mL (A549 cells [5]): 1.1%
5 | COc1cc2c(OC3O[C@H](C)[C@@H](O)[C@H](OC(=O)CC#N)[C@H]3O)c3c(c(-c4ccc5c(c4)OCO5)c2cc1OC)C(=O)OC3 (stereo partly drawn) [Compound 31j, 3″-O-cyanoacetyl-7-O-β-D-patentiflorin A] | – | 0.91 | 6.68 | – | – | – | – | – | – | – | EC50 (SARS-CoV-2): 10.3 nM; inhibition at 0.0125 µg/mL ([4]; A549, 12.5 ng/mL, read-out: % Inhibition against VSV): 98.4%; inhibition at 0.05 µg/mL ([4]; A549, 50 ng/mL, read-out: % Inhibition against VSV): 99.9%; EC50 [4]: 0.91 nM; CC50 (in vitro; CC50 against the host cell line A549): 6.68 nM; % Inhibition against H5N1 virus (H5N1 virus; 50 ng/mL): 98.2%; inhibition at 0.0125 µg/mL (H5N1 virus; Influenza A virus, H5N1, A549, 12.5 ng/mL, read-out: % Inhibition against H5N1 virus): 97.5%; inhibition at 0.05 µg/mL (H5N1 virus; Influenza A virus, H5N1, A549, 50 ng/mL, read-out: % Inhibition against H5N1 virus): 87.6%; inhibition at 0.25 µg/mL (H5N1 virus; Influenza A virus, H5N1, A549, 250 ng/mL, read-out: % Inhibition against H5N1 virus): 97.9%; EC50 (H5N1 virus; Influenza A virus): 0.84 nM; EC50 (EBOV (Ebola virus)): 0.84 nM; inhibition at 0.0125 µg/mL (EBOV (Ebola virus); A549, 12.5 ng/mL, read-out: % Inhibition against EBOV): 93.9%; inhibition at 0.05 µg/mL (EBOV (Ebola virus); A549, 50 ng/mL, read-out: % Inhibition against EBOV): 96.6%; inhibition at 0.0125 µg/mL (A549 cells [5]): 77%; inhibition at 0.05 µg/mL (A549 cells [5]): 93.8%
6 | COc1cc2c(OCC#N)c3c(c(-c4ccc5c(c4)OCO5)c2cc1OC)C(=O)OC3 [Compound 17a] | much more improved anti-HIV activity | 72 | 45200 | 174 | 168 | 151 | > 100000 | 203 | 122 | 134 | excised organs at the end of the experiment [1]: appeared as normal; toxic symptoms (weight loss, skin damage, food and water intake impairment and postual abnormality) and mortality [1]: no toxic symptoms
7 | 2″-Acetyl-7-O-β-D-patentiflorin A [Compound 27bc] | – | – | – | – | – | – | – | – | – | – | EC50 (HIV; read-out: EC50): 0.93 nM; CC50 (A549 cells [6]): 1370 nM
8 | CCOC(=O)COc1c2c(c(-c3ccc4c(c3)OCO4)c3cc(OC)c(OC)cc13)C(=O)OC2 [Compound 12b] | – | 207 | > 26800 | 537 | 458 | 312 | > 100000 | 638 | 340 | 376 | –
